# Results as given in patent publication US11840686B2, “Modulation of prekallikrein (PKK) expression” (Ionis Pharmaceuticals, Inc., priority 2013, dated 2023).
# Strand notation (5' to 3'): a small letter for the sugar, then the base; units joined by * are phosphorothioate-linked, units joined directly phosphodiester-linked; [ ] holds rarer units or linkages, { } end groups; capitals alone tell only the bases. e = 2'-O-(2-methoxyethyl) (MOE); [5mC] = 5-methylcytosine; d = 2'-deoxy (DNA)
# Test system: human PKK mRNA
# Assay: Antisense inhibition of human PKK mRNA in HepaRG cells, 5,000 nM (Example 2)
# Assay type: cell-based
# Summary of the method: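 Chimeric MOE gapmers with full phosphorothioate backbones were tested once at 5,000 nM in electroporated HepaRG cells. After about 24 hours, quantitative PCR measured PKK mRNA relative to untreated control cells.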
# [1] = Table 8, HepaRG cells, electroporation with 5,000 nM antisense oligonucleotide, approx. 24 hours, PKK mRNA by RT-PCR (RTS3454), relative to untreated control cells
# [2] = HepaRG cells, electroporation, 5,000 nM antisense oligonucleotide, approx. 24 hours, primer probe set RTS3454, relative to untreated control cells, Table 11
# [3] = Table 9 experiment, HepaRG cells, 20,000 cells per well, electroporation with 5,000 nM antisense oligonucleotide, approx. 24 hours, PKK mRNA by RT-PCR (RTS3454), relative to untreated control cells
# [4] = Table 10 experiment, HepaRG cells, 20,000 cells per well, electroporation with 5,000 nM antisense oligonucleotide, approx. 24 hours, PKK mRNA by RT-PCR (RTS3454), relative to untreated control cells
# [5] = human PKK mRNA, HepaRG cells, 5,000 nM antisense oligonucleotide, Table 18
# [6] = HepaRG cells, electroporation with 5,000 nM antisense oligonucleotide, approximately 24 hours, PKK mRNA by RT-PCR (RTS3454), relative to untreated control cells, Table 5 experiment
# [7] = Table 13, human PKK mRNA in HepaRG cells, 5-10-5 gapmers
# [8] = HepaRG cells, electroporation with 5,000 nM antisense oligonucleotide, approximately 24 hours, PKK mRNA by RT-PCR (RTS3454), relative to untreated control cells, Table 6 experiment
# [9] = HepaRG cells, electroporation, 5,000 nM antisense oligonucleotide, approx. 24 hours, primer probe set RTS3454, relative to untreated control cells, Table 12
# [10] = human PKK mRNA in HepaRG cells, 5-10-5 gapmers, Table 14
substance,measurement,setting,value
547422 (eA*e[5mC]*e[5mC]*eA*eT*d[5mC]*d[5mC]*dA*dT*dA*dG*dA*dT*dA*dA*eT*e[5mC]*eT*eT*eA; antisense) [compound 547422],% inhibition,[1],70%
546354 (antisense eG*eT*eA*e[5mC]*eT*d[5mC]*dA*dG*d[5mC]*dG*dA*d[5mC]*dT*dT*dT*eG*eG*eT*eG*eT) [compound 546354],% inhibition,[2],47%
547474 (antisense eT*eG*eT*eA*eG*dA*dA*dT*dA*dT*dT*dT*dT*dG*dG*eA*eT*eT*eT*e[5mC]) [compound 547474],% inhibition,[3],51%
same,% inhibition,[4],34%
547431 (e[5mC]*eA*eG*eT*eG*dT*dT*dA*d[5mC]*dA*d[5mC]*dA*dA*dT*d[5mC]*eT*e[5mC]*eA*eA*eA; antisense) [compound 547431],% inhibition,[1],67%
548760 (antisense eT*eA*eA*e[5mC]*dA*dG*dT*dA*dT*d[5mC]*dA*d[5mC]*dT*eG*eT*eA*e[5mC]) [compound 548760],% inhibition,[5],53%
548762 (antisense eT*e[5mC]*eT*eA*dA*d[5mC]*dA*dG*dT*dA*dT*d[5mC]*dA*e[5mC]*eT*eG*eT) [compound 548762],% inhibition,[5],16%
547306 (antisense eA*eG*e[5mC]*eA*eA*d[5mC]*d[5mC]*dA*dA*dA*d[5mC]*d[5mC]*dT*dT*dT*eT*e[5mC]*eT*e[5mC]*e[5mC]) [compound 547306],% inhibition,[6],62%
547521 (antisense e[5mC]*eT*eT*e[5mC]*eA*dG*d[5mC]*d[5mC]*dA*dG*dA*d[5mC]*dA*dT*dT*eG*eT*e[5mC]*e[5mC]*eT) [compound 547521],% inhibition,[2],58%
547511 (antisense eG*eA*eT*eG*eA*dG*dG*dA*d[5mC]*d[5mC]*d[5mC]*d[5mC]*d[5mC]*d[5mC]*dA*eG*eG*e[5mC]*eT*e[5mC]) [compound 547511],% inhibition,[2],53%
546824 (eG*eT*eA*e[5mC]*eT*dA*dG*dT*dT*dT*d[5mC]*d[5mC]*dT*dA*dT*eA*eA*e[5mC]*eT*eG; antisense) [compound 546824],% inhibition,[7],79%
547338 (antisense eT*e[5mC]*eA*eA*e[5mC]*dT*d[5mC]*d[5mC]*dT*dT*dT*dA*dT*dA*dA*eA*eT*eG*eT*e[5mC]) [compound 547338],% inhibition,[8],71%
546141 (eG*eA*eA*eA*eT*dA*dA*dG*dT*dT*dG*d[5mC]*dT*dT*dG*e[5mC]*eT*eT*eG*eA; antisense) [compound 546141],% inhibition,[6],56%
546165 (e[5mC]*eA*eT*eT*eG*dA*dT*dT*dG*dA*dA*d[5mC]*dT*dT*dG*e[5mC]*eT*eG*eG*eA; antisense) [compound 546165],% inhibition,[6],71%
546447 (eG*eT*e[5mC]*eA*e[5mC]*d[5mC]*dA*dT*dA*dG*dA*d[5mC]*d[5mC]*d[5mC]*dA*eG*eA*eA*eT*e[5mC]; antisense) [compound 546447],% inhibition,[9],68%
548741 (DNA e[5mC]*eT*eG*eT*dA*d[5mC]*dT*dA*dG*dT*dT*dT*d[5mC]*e[5mC]*eT*eA*eT; antisense) [compound 548741],% inhibition,[5],69%
547576 (e[5mC]*eT*eA*eG*eT*dT*dT*d[5mC]*d[5mC]*dT*dA*dT*dA*dA*d[5mC]*eT*eG*e[5mC]*eT*eG; antisense) [compound 547576],% inhibition,[7],29%
547412 (eA*eT*e[5mC]*eA*eT*d[5mC]*dT*dT*dT*dG*dT*dG*d[5mC]*dA*dA*eG*eT*e[5mC]*eT*e[5mC]; antisense) [compound 547412],% inhibition,[1],73%
546170 (antisense eG*e[5mC]*eA*eA*e[5mC]*d[5mC]*dA*dA*dA*d[5mC]*d[5mC]*dT*dT*dT*dT*e[5mC]*eT*e[5mC]*e[5mC]*eA) [compound 546170],% inhibition,[6],54%
546212 (antisense eA*eG*eA*eT*eG*d[5mC]*dT*dG*dG*dA*dA*dG*dA*dT*dG*eT*eT*e[5mC]*eA*eT) [compound 546212],% inhibition,[8],48%
546975 (eG*eG*e[5mC]*e[5mC]*eT*dG*dG*dA*dT*dA*d[5mC]*dA*dG*d[5mC]*d[5mC]*eT*eT*eT*e[5mC]*eT; antisense) [compound 546975],% inhibition,"HepaRG cells, 5,000 nM antisense oligonucleotide, 5-10-5 gapmers, Table 16",70%
547607 (antisense eT*eA*eA*e[5mC]*eA*dA*dT*dA*dT*d[5mC]*dA*d[5mC]*dT*dG*dT*eA*e[5mC]*e[5mC]*eT*eA) [compound 547607],% inhibition,[10],49%
546349 (antisense eG*eT*eG*eT*eT*dT*dG*d[5mC]*dA*dA*dA*d[5mC]*dT*dA*dA*eG*eG*eG*eA*e[5mC]) [compound 546349],% inhibition,[3],48%
same,% inhibition,[4],35%
546765 (eG*eT*eG*eT*e[5mC]*d[5mC]*dA*dG*dA*dA*dT*dA*d[5mC]*dT*dG*e[5mC]*e[5mC]*e[5mC]*e[5mC]*eA; antisense) [compound 546765],% inhibition,[7],82%
547517 (antisense eT*eA*eG*eG*eA*dT*dG*d[5mC]*dA*dA*dA*dG*dA*dA*dG*eA*eT*eG*e[5mC]*e[5mC]) [compound 547517],% inhibition,[2],57%
548736 (DNA eT*eA*eT*e[5mC]*dA*d[5mC]*dT*dG*dT*dA*d[5mC]*dT*dA*dG*eT*eT*eT; antisense) [compound 548736],% inhibition,[5],21%
546159 (eT*eA*eG*e[5mC]*eA*dA*dA*d[5mC]*dA*d[5mC]*d[5mC]*dT*dT*dG*dG*eG*eT*eG*eG*eA; antisense) [compound 546159],% inhibition,[6],76%
546789 (eG*e[5mC]*eT*eT*e[5mC]*dT*d[5mC]*dT*dA*dT*d[5mC]*dT*d[5mC]*d[5mC]*d[5mC]*eA*eG*eT*eG*eT; antisense) [compound 546789],% inhibition,[7],79%
546283 (antisense eT*e[5mC]*eT*e[5mC]*eA*dA*dA*dG*dA*dG*dT*dA*dA*d[5mC]*d[5mC]*eA*eG*eA*eG*e[5mC]) [compound 546283],% inhibition,[1],88%
547323 (antisense eT*eT*eG*e[5mC]*eT*dT*d[5mC]*dA*dA*dG*dG*dA*dA*dT*dG*eT*e[5mC]*e[5mC]*eA*eG) [compound 547323],% inhibition,[8],56%
546267 (e[5mC]*e[5mC]*eT*eT*eA*d[5mC]*dA*dG*dT*d[5mC]*dT*dT*d[5mC]*dT*dG*eG*eG*eA*eG*eT; antisense) [compound 546267],% inhibition,[1],72%
546459 (eG*eT*eA*eG*e[5mC]*d[5mC]*dA*dT*dA*d[5mC]*dA*dT*d[5mC]*dT*dG*eA*eG*eG*eA*eA; antisense) [compound 546459],% inhibition,[9],46%
546796 (eG*eT*eA*e[5mC]*eT*d[5mC]*dA*d[5mC]*d[5mC]*dG*dG*dT*dA*d[5mC]*dT*e[5mC]*eT*eG*e[5mC]*e[5mC]; antisense) [compound 546796],% inhibition,[7],82%
546140 (eG*e[5mC]*eT*eT*eG*d[5mC]*dT*dT*dG*dA*dA*dT*dA*dA*dA*eA*eT*e[5mC]*eA*eT; antisense) [compound 546140],% inhibition,[6],60%
546823 (eT*eA*e[5mC]*eT*eA*dG*dT*dT*dT*d[5mC]*d[5mC]*dT*dA*dT*dA*eA*e[5mC]*eT*eG*e[5mC]; antisense) [compound 546823],% inhibition,[7],44%
546375 (antisense eG*eA*e[5mC]*e[5mC]*e[5mC]*d[5mC]*d[5mC]*d[5mC]*dA*dG*dG*d[5mC]*dT*d[5mC]*dA*eG*eA*eA*eT*eT) [compound 546375],% inhibition,[2],48%
546817 (eG*e[5mC]*eT*e[5mC]*eT*dG*dA*dG*d[5mC]*d[5mC]*dT*dT*d[5mC]*d[5mC]*dG*e[5mC]*e[5mC]*eT*e[5mC]*eT; antisense) [compound 546817],% inhibition,[7],77%
546795 (eG*eT*e[5mC]*eT*e[5mC]*dG*dA*dT*dG*dG*d[5mC]*dA*dA*dG*d[5mC]*eT*eG*eT*eA*e[5mC]; antisense) [compound 546795],% inhibition,[7],72%
546881 (eA*eG*eT*eT*eT*d[5mC]*d[5mC]*dT*dA*dT*dA*dA*d[5mC]*dA*dG*eT*eA*eT*e[5mC]*eA; antisense) [compound 546881],% inhibition,[10],49%
546858 (e[5mC]*eT*eA*eT*eA*dA*d[5mC]*dT*dA*dT*dA*dA*d[5mC]*dA*dG*eT*eA*eT*e[5mC]*eA; antisense) [compound 546858],% inhibition,[10],21%
546841 (e[5mC]*eA*e[5mC]*eT*eG*dT*d[5mC]*d[5mC]*dT*dA*dT*dA*dA*d[5mC]*dT*e[5mC]*eT*eA*eA*e[5mC]; antisense) [compound 546841],% inhibition,[7],38%
